Results taken from patent US4831027A, “Imidazo-benzoxazinones, the preparation thereof and pharmaceutical compositions containing these compounds” (Dr. Karl Thomae GmbH, priority 1986, dated 1989).

Test system: anaesthetized cats
Assay: Determination of the effect on blood pressure and positive inotropic activity in anaesthetized cats
Assay type: in vivo
Details: 0.3 mg/kg i.v., average of 2 cats; for Diastolic blood pressure change: anaesthetized cats (sodium pentobarbital), pressure in aorta abdominalis; for Duration of effect (half life) / Increase of dp/dt (contractility parameter dp/dtmax): anaesthetized cats; for Increase of dp/dt (contractility parameter dp/dtmax): pressure in left ventricle, catheter-tip manometer
Experimental: 1. Determination of the effect on blood pressure and positive inotropic activity in anaesthetized cats: The tests were carried out on cats which had been anaesthetized with sodium pentobarbital (40 mg/kg i.p. and 8 mg/kg/hour i.v.). The animals breathed spontaneously. The arterial blood pressure was measured in the aorta abdominalis using a Statham pressure transducer (P 23 Dc). To determine the positive inotropic activity the pressure in the left ventricle was measured using a catheter-tip manometer (Millar PC-350 A). From this, the contractility parameter dp/dtmax was obtained using an analogue differentiator. The test substance was injected into a vena femoralis. Polydiol 200 was used as solvent. The substance was tested on 2 cats, dosage 0.3 mg/kg i.v.

CCN1C(=O)OC(C)(C)c2cc3[nH]c(-c4ccco4)nc3cc21 [D, 5-ethyl-8,8-dimethyl-2-(2-furyl)-8-hydro-(5H)imidazo[5,4-g][3,1]benzoxazin-6-one]
Diastolic blood pressure change: -37 mmHg
Duration of effect (half life): 4 min
Increase of dp/dt (contractility parameter dp/dtmax): +41%

CCN1C(=O)OC(C)(C)c2cc3[nH]c(-c4ccncc4)nc3cc21 [B, 5-ethyl-8,8-dimethyl-2-(4-pyridyl)-8-hydro-(5H)imidazo[5,4-g][3,1]benzoxazin-6-one]
Diastolic blood pressure change: -21 mmHg
Duration of effect (half life): 16 min
Increase of dp/dt (contractility parameter dp/dtmax): +52%

CC1(C)OC(=O)Nc2cc3nc(-c4cccs4)[nH]c3cc21 [F, 8,8-dimethyl-2-(2-thienyl)-8-hydro-(5H)-imidazo[5,4-g][3,1]benzoxazin-6-one]
Diastolic blood pressure change: -24 mmHg
Duration of effect (half life): 10 min
Increase of dp/dt (contractility parameter dp/dtmax): +28%

CCCc1nc2cc3c(cc2[nH]1)C(C)(C)OC(=O)N3 [C, 8,8-dimethyl-2-n-propyl-8-hydro-(5H)-imidazo[5,4-g][3,1]benzoxazin-6-one]
Diastolic blood pressure change: -11 mmHg
Duration of effect (half life): 11 min
Increase of dp/dt (contractility parameter dp/dtmax): +31%

CC1(C)OC(=O)Nc2cc3nc(-c4ccco4)[nH]c3cc21 [E, 8,8-dimethyl-2-(2-furyl)-8-hydro-(5H)-imidazo[5,4-g][3,1]benzoxazin-6-one]
Diastolic blood pressure change: -16 mmHg
Duration of effect (half life): 7 min
Increase of dp/dt (contractility parameter dp/dtmax): +31%

CC1(C)OC(=O)Nc2cc3nc(-c4ccncc4)[nH]c3cc21 [A, 8,8-dimethyl-2-(4-pyridyl)-8-hydro-(5H)-imidazo[5,4-g][3,1]benzoxazin-6-one]
Diastolic blood pressure change: 0 mmHg
Duration of effect (half life): 18 min
Increase of dp/dt (contractility parameter dp/dtmax): +43%
